{
  "source": "patent US20090264384A1",
  "about": "“INDOLE, BENZIMIDAZOLE, AND BENZOLACTAM BORONIC ACID COMPOUNDS, ANALOGS THEREOF AND METHODS OF USE THEREOF” (Nuada, Inc., priority 2004, published 2009)",
  "key": {"A3(h)": {"molecular_target": "T1, A3(h) (Homo sapiens, UniProt P0DMS8)", "T1 construct": "expressed in transfected cells; host or cells: HEK-293 cells", "assay": "A3(h) binding assay", "conditions": "read-out: % Inhibition of Control Specific Binding"}, "α1 (non-selective)": {"tested_on": "α1 (non-selective)", "assay": "α1 (non-selective) binding assay", "set-up": "species or system rat", "conditions": "1.0E−05 M"}, "α2 (non-selective)": {"tested_on": "α2 (non-selective)", "assay": "α2 (non-selective) binding assay", "set-up": "species or system rat", "conditions": "1.0E−05 M"}, "AT1(h)": {"molecular_target": "T2, AT1(h) (Homo sapiens, UniProt P30556)", "T2 construct": "expressed in transfected cells; host or cells: CHO cells", "assay": "AT1(h) binding assay", "conditions": "read-out: % Inhibition of Control Specific Binding"}, "CRF1": {"molecular_target": "T3, CRF1 (Rattus norvegicus, UniProt P35353)", "T3 construct": "from tissue; host or cells: rat pituitary gland", "assay": "CRF1 binding assay", "conditions": "read-out: % Inhibition of Control Specific Binding"}, "ETB(h)": {"molecular_target": "T4, ETB(h) (Homo sapiens, UniProt P24530)", "T4 construct": "expressed in transfected cells; host or cells: CHO cells", "T4 sequence (P24530 27-442)": "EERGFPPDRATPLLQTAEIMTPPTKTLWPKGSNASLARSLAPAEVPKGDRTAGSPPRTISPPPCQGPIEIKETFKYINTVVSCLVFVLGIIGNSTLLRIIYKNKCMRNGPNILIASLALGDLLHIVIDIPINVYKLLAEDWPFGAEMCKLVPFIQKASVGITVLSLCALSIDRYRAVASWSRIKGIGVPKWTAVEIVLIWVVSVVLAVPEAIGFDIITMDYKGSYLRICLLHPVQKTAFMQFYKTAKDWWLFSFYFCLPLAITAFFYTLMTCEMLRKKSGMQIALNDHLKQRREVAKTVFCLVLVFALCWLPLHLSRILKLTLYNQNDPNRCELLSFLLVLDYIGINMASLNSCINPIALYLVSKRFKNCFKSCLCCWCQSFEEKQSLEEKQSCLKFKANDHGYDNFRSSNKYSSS", "assay": "ETB(h) binding assay", "conditions": "read-out: % Inhibition of Control Specific Binding"}, "LTD4(h)": {"molecular_target": "T5, LTD4(h) (Homo sapiens, UniProt Q9Y271)", "T5 construct": "LTD4(h); U-937 cells; LTD4; Frey et al. (1993); endogenous in cells; host or cells: U-937 cells", "assay": "LTD4(h) binding assay", "conditions": "read-out: % Inhibition of Control Specific Binding"}, "NK2(h)": {"molecular_target": "T6, NK2(h) (Homo sapiens, UniProt P21452)", "T6 construct": "expressed in transfected cells; host or cells: CHO cells", "T6 sequence (P21452 whole entry)": "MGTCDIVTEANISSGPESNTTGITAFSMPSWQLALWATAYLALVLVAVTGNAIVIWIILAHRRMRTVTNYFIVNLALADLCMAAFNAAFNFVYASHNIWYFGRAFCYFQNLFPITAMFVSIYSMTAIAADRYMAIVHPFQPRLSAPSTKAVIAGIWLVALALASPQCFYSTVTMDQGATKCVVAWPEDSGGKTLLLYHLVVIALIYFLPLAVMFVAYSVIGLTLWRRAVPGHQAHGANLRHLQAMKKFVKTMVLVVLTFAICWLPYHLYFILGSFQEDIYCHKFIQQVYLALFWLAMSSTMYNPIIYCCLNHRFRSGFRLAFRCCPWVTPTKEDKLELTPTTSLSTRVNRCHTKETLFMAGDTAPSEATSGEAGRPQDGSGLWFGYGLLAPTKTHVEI", "assay": "NK2(h) binding assay", "conditions": "1.0E−05 M; read-out: % Inhibition of Control Specific Binding"}, "NK3(h)": {"molecular_target": "T7, NK3(h) (Homo sapiens, UniProt P29371)", "T7 construct": "expressed in transfected cells; host or cells: CHO cells", "T7 sequence (P29371 whole entry)": "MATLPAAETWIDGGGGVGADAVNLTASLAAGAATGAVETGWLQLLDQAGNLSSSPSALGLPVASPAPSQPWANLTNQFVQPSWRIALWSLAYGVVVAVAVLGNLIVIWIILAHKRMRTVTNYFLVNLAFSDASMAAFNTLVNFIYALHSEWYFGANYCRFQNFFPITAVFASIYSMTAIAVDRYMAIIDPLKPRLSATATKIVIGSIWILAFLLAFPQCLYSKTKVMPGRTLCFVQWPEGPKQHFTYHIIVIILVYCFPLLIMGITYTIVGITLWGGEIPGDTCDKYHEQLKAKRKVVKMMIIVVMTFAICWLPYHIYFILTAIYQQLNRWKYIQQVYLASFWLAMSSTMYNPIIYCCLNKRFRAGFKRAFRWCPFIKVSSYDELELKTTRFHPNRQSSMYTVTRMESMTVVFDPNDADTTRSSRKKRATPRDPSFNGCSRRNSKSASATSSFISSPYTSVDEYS", "assay": "NK3(h) binding assay", "conditions": "read-out: % Inhibition of Control Specific Binding"}, "ORL1(h) (NOP)": {"molecular_target": "T8, ORL1(h) (NOP) (Homo sapiens, UniProt P41146)", "T8 construct": "expressed in transfected cells; host or cells: HEK-293 cells", "T8 sequence (P41146 whole entry)": "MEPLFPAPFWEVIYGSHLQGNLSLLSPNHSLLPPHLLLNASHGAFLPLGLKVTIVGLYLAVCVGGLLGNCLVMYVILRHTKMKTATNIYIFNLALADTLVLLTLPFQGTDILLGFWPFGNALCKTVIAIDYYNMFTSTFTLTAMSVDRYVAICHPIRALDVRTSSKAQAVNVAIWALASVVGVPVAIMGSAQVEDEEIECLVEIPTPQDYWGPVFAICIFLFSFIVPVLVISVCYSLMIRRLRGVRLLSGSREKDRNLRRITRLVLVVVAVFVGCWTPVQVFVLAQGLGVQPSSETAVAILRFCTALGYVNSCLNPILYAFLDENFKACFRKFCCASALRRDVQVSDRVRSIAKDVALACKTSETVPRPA", "assay": "ORL1(h) (NOP) binding assay", "conditions": "1.0E−05 M; read-out: % Inhibition of Control Specific Binding"}, "PCP": {"tested_on": "PCP", "assay": "PCP binding assay", "set-up": "species or system rat", "conditions": "1.0E−05 M"}, "P2Y": {"tested_on": "P2Y", "assay": "P2Y binding assay", "set-up": "species or system rat", "conditions": "1.0E−05 M"}, "5-HT (non-selective)": {"tested_on": "5-HT (non-selective)", "assay": "5-HT (non-selective) binding assay", "set-up": "species or system rat", "conditions": "1.0E−05 M"}, "Progesterone(h) (PR)": {"tested_on": "Progesterone(h) (PR)", "assay": "Progesterone(h) (PR) binding assay", "set-up": "species or system human", "conditions": "1.0E−05 M"}, "Cl-channel": {"tested_on": "Cl-channel", "assay": "Cl-channel binding assay", "set-up": "species or system rat", "conditions": "1.0E−05 M"}, "GABA transporter": {"molecular_target": "GABA transporter (Rattus norvegicus, UniProt P23978)", "assay": "GABA transporter binding assay", "conditions": "1.0E−05 M; read-out: % Inhibition of Control Specific Binding"}, "Phosphodiesterase 3(h)": {"molecular_target": "Phosphodiesterase 3(h) (Homo sapiens, UniProt Q14432)", "assay": "Phosphodiesterase 3(h) enzyme assay", "assay_type": "biochemical", "conditions": "1.0E−05 M"}, "Phosphodiesterase 5(h)": {"molecular_target": "T9, Phosphodiesterase 5(h) (Homo sapiens, UniProt O76074)", "T9 construct": "human platelets; from tissue; host or cells: human platelets", "assay": "Phosphodiesterase 5(h) enzyme assay", "assay_type": "biochemical", "conditions": "1.0E−05 M"}, "Guanylyl cyclase (basal)": {"molecular_target": "T10, Guanylyl cyclase (basal) (Bos taurus, UniProt P16068+P19687)", "T10 construct": "bovine lung; from tissue; host or cells: bovine lung", "assay": "Guanylyl cyclase (basal) enzyme assay", "assay_type": "biochemical, bovine", "conditions": "1.0E−05 M"}, "Protein kinase C": {"tested_on": "Protein kinase C", "assay": "Protein kinase C enzyme assay", "assay_type": "biochemical, rat", "conditions": "1.0E−05 M"}, "GABA transaminase": {"molecular_target": "T11, GABA transaminase (Rattus norvegicus, UniProt P50554)", "T11 construct": "rat brain; from tissue; host or cells: rat brain", "assay": "GABA transaminase enzyme assay", "assay_type": "biochemical", "conditions": "1.0E−05 M"}, "MAO-A(h)": {"molecular_target": "T12, MAO-A(h) (Homo sapiens, UniProt P21397)", "T12 construct": "human placenta; from tissue; host or cells: human placenta", "assay": "MAO-A(h) enzyme assay", "assay_type": "biochemical", "conditions": "1.0E−05 M"}, "MAO-B(h)": {"molecular_target": "T13, MAO-B(h) (Homo sapiens, UniProt P27338)", "T13 construct": "human platelets; from tissue; host or cells: human platelets", "T13 sequence (P27338 whole entry)": "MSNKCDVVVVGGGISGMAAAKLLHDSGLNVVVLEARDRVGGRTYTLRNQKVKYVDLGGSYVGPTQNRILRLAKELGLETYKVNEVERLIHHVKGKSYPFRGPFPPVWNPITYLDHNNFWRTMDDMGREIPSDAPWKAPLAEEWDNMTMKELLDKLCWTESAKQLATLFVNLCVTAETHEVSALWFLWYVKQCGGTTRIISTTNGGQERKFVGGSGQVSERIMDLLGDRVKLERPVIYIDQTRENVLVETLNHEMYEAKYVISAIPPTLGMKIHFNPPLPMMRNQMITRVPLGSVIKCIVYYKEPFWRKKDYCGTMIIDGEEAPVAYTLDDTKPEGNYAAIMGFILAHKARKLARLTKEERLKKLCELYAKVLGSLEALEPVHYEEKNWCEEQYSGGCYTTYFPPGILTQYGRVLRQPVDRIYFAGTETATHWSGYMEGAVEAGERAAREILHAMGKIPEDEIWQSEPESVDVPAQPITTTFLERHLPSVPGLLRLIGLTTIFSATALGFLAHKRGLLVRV", "assay_type": "biochemical", "conditions": "1.0E−05 M"}, "Tyrosine hydroxylase": {"molecular_target": "T14, Tyrosine hydroxylase (Rattus norvegicus, UniProt P04177)", "T14 construct": "rat striatum; from tissue; host or cells: rat striatum", "T14 sequence (P04177 whole entry)": "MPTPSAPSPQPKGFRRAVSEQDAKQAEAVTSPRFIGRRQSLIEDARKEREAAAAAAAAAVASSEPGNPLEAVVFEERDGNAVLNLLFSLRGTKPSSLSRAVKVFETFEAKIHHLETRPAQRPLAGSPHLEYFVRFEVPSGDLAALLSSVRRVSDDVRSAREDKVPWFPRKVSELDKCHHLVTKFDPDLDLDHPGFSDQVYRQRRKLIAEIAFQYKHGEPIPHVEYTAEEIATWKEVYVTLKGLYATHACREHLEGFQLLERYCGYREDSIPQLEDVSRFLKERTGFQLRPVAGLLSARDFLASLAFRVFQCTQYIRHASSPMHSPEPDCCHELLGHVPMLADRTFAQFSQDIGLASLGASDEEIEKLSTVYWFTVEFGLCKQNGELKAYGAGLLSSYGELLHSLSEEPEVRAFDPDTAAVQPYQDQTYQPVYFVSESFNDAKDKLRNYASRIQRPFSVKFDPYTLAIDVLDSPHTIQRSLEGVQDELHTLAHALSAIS", "assay": "Tyrosine hydroxylase enzyme assay", "assay_type": "biochemical", "conditions": "1.0E−05 M"}, "CYP1A2": {"molecular_target": "CYP1A2 (Homo sapiens, UniProt P05177)", "sequence (P05177 whole entry)": "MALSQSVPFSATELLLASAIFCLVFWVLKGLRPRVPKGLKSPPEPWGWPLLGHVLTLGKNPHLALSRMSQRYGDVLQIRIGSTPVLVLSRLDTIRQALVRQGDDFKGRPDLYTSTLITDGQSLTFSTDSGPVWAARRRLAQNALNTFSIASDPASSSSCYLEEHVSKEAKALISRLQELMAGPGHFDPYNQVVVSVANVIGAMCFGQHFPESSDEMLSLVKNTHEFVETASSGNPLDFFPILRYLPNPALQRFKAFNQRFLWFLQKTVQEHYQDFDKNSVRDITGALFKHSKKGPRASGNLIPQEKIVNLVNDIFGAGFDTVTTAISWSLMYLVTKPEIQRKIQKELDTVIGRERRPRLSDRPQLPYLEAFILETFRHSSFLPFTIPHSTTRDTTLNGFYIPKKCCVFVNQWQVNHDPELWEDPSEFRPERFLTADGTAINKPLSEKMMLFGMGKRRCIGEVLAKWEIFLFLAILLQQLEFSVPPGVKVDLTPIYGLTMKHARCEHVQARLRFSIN", "assay": "ADME-Tox: In vitro Metabolism (Cytochrome P450, fluorogenic substrates BFC, CEC, MFC)", "set-up": "inhibition: dose or concentration left out as unconfirmed", "conditions": "human"}, "CYP2C19": {"molecular_target": "CYP2C19 (Homo sapiens, UniProt P33261)", "assay": "ADME-Tox: In vitro Metabolism (Cytochrome P450, fluorogenic substrates BFC, CEC, MFC)", "set-up": "inhibition: dose or concentration left out as unconfirmed", "conditions": "human"}, "CYP2C9": {"molecular_target": "CYP2C9 (Homo sapiens, UniProt P11712)", "sequence (P11712 whole entry)": "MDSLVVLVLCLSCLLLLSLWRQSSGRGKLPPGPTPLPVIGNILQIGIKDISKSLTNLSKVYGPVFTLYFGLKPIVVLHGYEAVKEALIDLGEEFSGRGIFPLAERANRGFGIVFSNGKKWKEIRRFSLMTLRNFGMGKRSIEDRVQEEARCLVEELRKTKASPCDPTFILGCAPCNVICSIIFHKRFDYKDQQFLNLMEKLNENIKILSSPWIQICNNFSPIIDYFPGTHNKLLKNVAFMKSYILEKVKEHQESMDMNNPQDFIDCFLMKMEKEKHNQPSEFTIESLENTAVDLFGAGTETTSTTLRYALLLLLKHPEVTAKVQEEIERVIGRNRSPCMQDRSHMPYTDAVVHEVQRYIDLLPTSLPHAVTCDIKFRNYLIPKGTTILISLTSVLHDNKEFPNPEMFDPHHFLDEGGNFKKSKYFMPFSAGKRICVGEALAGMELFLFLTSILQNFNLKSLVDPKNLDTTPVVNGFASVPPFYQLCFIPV", "assay": "ADME-Tox: In vitro Metabolism (Cytochrome P450, fluorogenic substrates BFC, CEC, MFC)", "set-up": "inhibition: dose or concentration left out as unconfirmed", "conditions": "human"}, "CYP2D6": {"molecular_target": "CYP2D6 (Homo sapiens, UniProt P10635)", "sequence (P10635 whole entry)": "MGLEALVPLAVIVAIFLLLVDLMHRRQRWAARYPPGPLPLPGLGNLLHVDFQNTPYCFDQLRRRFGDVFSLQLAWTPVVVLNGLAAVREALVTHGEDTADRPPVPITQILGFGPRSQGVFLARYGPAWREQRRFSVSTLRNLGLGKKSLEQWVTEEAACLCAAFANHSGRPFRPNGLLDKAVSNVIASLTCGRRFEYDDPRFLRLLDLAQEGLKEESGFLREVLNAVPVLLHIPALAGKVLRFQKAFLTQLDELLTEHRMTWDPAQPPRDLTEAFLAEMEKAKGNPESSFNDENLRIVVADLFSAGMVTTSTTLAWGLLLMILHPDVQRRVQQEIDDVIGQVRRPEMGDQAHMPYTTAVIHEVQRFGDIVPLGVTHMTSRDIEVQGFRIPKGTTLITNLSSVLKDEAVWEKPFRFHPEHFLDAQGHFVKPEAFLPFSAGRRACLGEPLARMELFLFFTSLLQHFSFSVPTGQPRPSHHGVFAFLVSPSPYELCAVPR", "assay": "ADME-Tox: In vitro Metabolism (Cytochrome P450, fluorogenic substrates BFC, CEC, MFC)", "set-up": "inhibition: dose or concentration left out as unconfirmed", "conditions": "human"}, "CYP3A4": {"molecular_target": "CYP3A4 (Homo sapiens, UniProt P08684)", "sequence (P08684 whole entry)": "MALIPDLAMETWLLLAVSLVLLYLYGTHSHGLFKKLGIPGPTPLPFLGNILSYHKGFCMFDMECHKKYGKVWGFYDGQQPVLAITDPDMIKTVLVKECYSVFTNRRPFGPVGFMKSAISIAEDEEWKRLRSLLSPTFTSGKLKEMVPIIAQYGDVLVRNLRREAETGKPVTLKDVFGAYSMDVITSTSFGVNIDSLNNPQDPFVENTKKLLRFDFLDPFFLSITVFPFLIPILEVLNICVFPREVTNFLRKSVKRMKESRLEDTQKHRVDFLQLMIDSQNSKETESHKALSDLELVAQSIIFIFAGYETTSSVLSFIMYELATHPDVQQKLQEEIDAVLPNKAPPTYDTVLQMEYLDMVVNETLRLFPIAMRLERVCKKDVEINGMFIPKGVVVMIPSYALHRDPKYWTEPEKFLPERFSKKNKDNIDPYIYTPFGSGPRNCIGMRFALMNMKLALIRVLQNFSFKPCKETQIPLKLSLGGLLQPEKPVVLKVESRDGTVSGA", "assay": "ADME-Tox: In vitro Metabolism (Cytochrome P450, fluorogenic substrates BFC, CEC, MFC)", "set-up": "inhibition: dose or concentration left out as unconfirmed", "conditions": "human"}},
  "data": [
    {"smiles": "N#Cc1ccc2c(ccn2CCCCCB(O)O)c1", "note": "[Example 20, 5-(5-cyano-1H-indol-1-yl)pentylboronic acid]", "values": [
      {"measurement": "inhibition at 10 µM", "setting": "A3(h)", "value": -12, "unit": "%"},
      {"measurement": "% Inhibition of Control Specific Binding", "setting": "α1 (non-selective)", "value": 21, "unit": "%"},
      {"measurement": "% Inhibition of Control Specific Binding", "setting": "α2 (non-selective)", "value": 7, "unit": "%"},
      {"measurement": "inhibition at 10 µM", "setting": "AT1(h)", "value": -3, "unit": "%"},
      {"measurement": "inhibition at 10 µM", "setting": "CRF1", "value": -23, "unit": "%"},
      {"measurement": "inhibition at 10 µM", "setting": "ETB(h)", "value": 10, "unit": "%"},
      {"measurement": "inhibition at 10 µM", "setting": "LTD4(h)", "value": 12, "unit": "%"},
      {"measurement": "inhibition at 10 µM", "setting": "NK2(h)", "value": -2, "unit": "%"},
      {"measurement": "inhibition at 10 µM", "setting": "NK3(h)", "value": 3, "unit": "%"},
      {"measurement": "inhibition at 10 µM", "setting": "ORL1(h) (NOP)", "value": 0, "unit": "%"},
      {"measurement": "% Inhibition of Control Specific Binding", "setting": "PCP", "value": 5, "unit": "%"},
      {"measurement": "% Inhibition of Control Specific Binding", "setting": "P2Y", "value": "−19", "unit": "%"},
      {"measurement": "% Inhibition of Control Specific Binding", "setting": "5-HT (non-selective)", "value": "−1", "unit": "%"},
      {"measurement": "% Inhibition of Control Specific Binding", "setting": "Progesterone(h) (PR)", "value": 79, "unit": "%"},
      {"measurement": "% Inhibition of Control Specific Binding", "setting": "Cl-channel", "value": 26, "unit": "%"},
      {"measurement": "inhibition at 10 µM", "setting": "GABA transporter", "value": -13, "unit": "%"},
      {"measurement": "% Inhibition of Control Values", "setting": "Phosphodiesterase 3(h)", "value": 95, "unit": "%"},
      {"measurement": "% Inhibition of Control Values", "setting": "Phosphodiesterase 5(h)", "value": 94, "unit": "%"},
      {"measurement": "% Stimulation Relative to Control", "setting": "Guanylyl cyclase (basal)", "value": 0, "unit": "%"},
      {"measurement": "% Inhibition of Control Values", "setting": "Protein kinase C", "value": 0, "unit": "%"},
      {"measurement": "% Inhibition of Control Values", "setting": "GABA transaminase", "value": "−2", "unit": "%"},
      {"measurement": "% Inhibition of Control Values", "setting": "MAO-A(h)", "value": 6, "unit": "%"},
      {"measurement": "% Inhibition of Control Values", "setting": "MAO-B(h)", "value": "−8", "unit": "%"},
      {"measurement": "% Inhibition of Control Values", "setting": "Tyrosine hydroxylase", "value": 4, "unit": "%"},
      {"measurement": "inhibition", "setting": "CYP1A2", "value": 40, "unit": "%"},
      {"measurement": "inhibition", "setting": "CYP2C19", "value": 52, "unit": "%"},
      {"measurement": "inhibition", "setting": "CYP2C9", "value": 73, "unit": "%"},
      {"measurement": "inhibition", "setting": "CYP2D6", "value": 42, "unit": "%"},
      {"measurement": "inhibition", "setting": "CYP3A4", "value": 97, "unit": "%"}
    ]}
  ]
}
